Laboratory results reported in patent publication US5227372A, “Method for retaining ophthalmological agents in ocular tissues” (Children's Medical Center Corporation, priority 1990, dated 1993).

What was measured:
[1] = Fluorescence of neovascularized corneal vessels after injection into the carotid artery (Example 4); type: in vivo, rabbit; conditions: injected into the carotid artery; fluorescein alone
Protocol: The water soluble complex described in Example 3 was injected into the carotid artery of rabbits who had neovascularization in the cornea induced by a pellet of endotoxin implanted one week earlier. After a single injection, the new vessels in the cornea were still flourescing green 3 hours later.
Similarly, when the cyclodextrin-fluorscein complex, dissolved in an aqueous solution of methylcellulose (0.45%), was applied to the rabbit cornea, Descemet's membrane in the cornea also glowed green more than 3 hours later when histological sections of the corneas were examined.

[2] = Fluorescence of Descemet's membrane in histological sections of corneas after application to the cornea (Example 4); type: in vivo, rabbit; conditions: fluorescein alone
[3] = intravenous injection; fluorescein alone; cited from earlier work
[4] = polymeric film; cited from earlier work
[5] = polyacrylamide and copolymer of acrylamide, N-vinylpyrrolidone and ethyl acrylate matrix; cited from earlier work
[6] = rabbit, in vivo
Protocol: A polyethylene ring was glued to the cornea in anesthesized rabbits. Saline containing 1 mg/ml of [S^35 ]-β-cyclodextrin tetradecasulfate was added to each well for up to 120 minutes, after which the wells were removed and the corneas vigorously rinsed with saline. The anterior chamber fluid (ACF) was then aspirated. The corneas were then exised and digested in collegenase and the corneal supernatunt counted.

[7] = rabbit, in vivo; remark: listed apart in the source
[8] = tested on: fibroblast growth factor (FGF); conditions: sulfated cyclodextrin column; Shing et al.; cited from earlier work

Compound: O=C1OC2(c3ccc(O)cc3Oc3cc(O)ccc32)c2ccccc21 [fluorescein]
- disappearance from the corneal vessels [1]: disappeared from the corneal vessels within a few minutes
- presence in Descemet's membrane [2]: not found in Descemet's membrane
- time to clearance from the blood vessels [3]: less than one

Compound: CC[C@@H]1C(=O)OC[C@@H]1Cc1cncn1C [pilocarpine]
- increase in ocular bioavailability of pilocarpine over aqueous solution [4]: two
- increase in ocular bioavailability of pilocarpine [5]: three

Compound: β-cyclodextrin tetradecasulfate
- time after removal of wells up to which label is detected in the ACF and in the corneas [6]: up to three
- time course of penetration in both the corneas and ACF [6]: increased bearly with time
- concentration in the aqueous humor relative to cornea [7]: parallels that in the cornea, but at lower levels
- time course in the cornea [7]: rapid rise in the cornea of labelled β-cyclodextrin tetradecasulfate and then a gradual fall-off
- affinity for FGF [8]: high affinity
